Results from PubChem BioAssay AID623934 (Southern Research Specialized Biocontainment Screening …, 2012).
pEC50: −log10 of the molar value. Activity calls are given as the source filed them. How the calls were made is not given here.

Tested on: not listed separately
Experiment: cell protection from WNV infection – EC_3, dose response (AID 623934)
Details: West Nile virus infected cells, antiviral cytopathic protection; at 50 µM (top of the series)

Q: Which inhibition does the source give for Cc1cc(-n2c(SCC(=O)c3nc(-c4ccccc4)cs3)nc3ccccc3c2=O)ccc1Cl here?
A: 3.94% (inactive)

Same assay, conditions: West Nile virus infected cells, antiviral cytopathic protection; at 100 µM (top of the series)

Q: For N#Cc1ccc(-n2c(SCC(=O)c3nc(-c4ccccc4)cs3)nc3ccccc3c2=O)cc1, which inhibition is on record?
A: 3.25% (inactive)

Q: For N#Cc1ccc(-n2c(SCC(=O)Nc3ccc4c(c3)CCC4)nc3ccccc3c2=O)cc1, which inhibition is on record?
A: 8.15% (inactive)

Q: With Cc1cc(-n2c(SCC(=O)c3nc(-c4ccccc4)cs3)nc3ccccc3c2=O)ccc1F as the molecule, how does the inhibition read?
A: 3.75% (inactive)

Q: With O=C(CSc1nc2ccccc2c(=O)n1-c1cc(F)cc(F)c1)c1nc(-c2ccccc2)cs1 as the molecule, how does the inhibition read?
A: 6.41% (inactive)

Q: For O=C(CSc1nc2c(F)cccc2c(=O)n1-c1ccccc1)Nc1nc(-c2ccccc2)cs1, which inhibition is on record?
A: 3.49% (inactive)

Q: With O=C(CSc1nc2ccccc2c(=O)n1-c1c(Cl)cccc1Cl)c1nc(-c2ccccc2)cs1 as the molecule, how does the inhibition read?
A: 3.02% (inactive)

Q: With O=C(CSc1nc2ccccc2c(=O)n1-c1ccc(Cl)c(Cl)c1)Nc1nc(-c2ccccc2)cs1 as the molecule, how does the inhibition read?
A: 4.05% (inactive)

Q: Which inhibition does the source give for O=C(CSc1nc2ccccc2c(=O)n1-c1ccc(Cl)c(Cl)c1)Nc1ccc2c(c1)CCC2 here?
A: 24.8% (inactive)

Q: With O=C(CSc1nc2cccc(F)c2c(=O)n1-c1ccc(Cl)c(Cl)c1)Nc1ccc2c(c1)CCC2 as the molecule, how does the inhibition read?
A: 3.14% (inactive)

Q: With O=C(CSc1nc2c(Cl)cccc2c(=O)n1-c1cc(Cl)cc(Cl)c1)Nc1nc(-c2ccccc2)cs1 as the molecule, how does the inhibition read?
A: 5.19% (inactive)

Q: Which inhibition does the source give for O=C(CSc1nc2ccccc2c(=O)n1-c1ccc(Cl)c(F)c1)c1nc(-c2ccccc2)cs1 here?
A: 4.16% (inactive)

Q: Which inhibition does the source give for N#Cc1ccc(-n2c(SCC(=O)Nc3nc(-c4ccccc4)cs3)nc3ccccc3c2=O)cc1 here?
A: 6.44% (inactive)

Q: Which inhibition does the source give for Cc1cc(-n2c(SCC(=O)Nc3nc(-c4ccccc4)cs3)nc3ccccc3c2=O)ccc1Cl here?
A: 5.12% (inactive)

Q: Which inhibition does the source give for O=C(CSc1nc2ccccc2c(=O)n1-c1ccc(Cl)c(Br)c1)Nc1nc(-c2ccccc2)cs1 here?
A: 4.48% (inactive)

Q: Which inhibition does the source give for O=C(CSc1nc2ccccc2c(=O)n1-c1ccccn1)Nc1ccc2c(c1)CCC2 here?
A: 2.47% (inactive)

Q: For O=C(CSc1nc2c(Cl)cccc2c(=O)n1-c1cc(Cl)cc(Cl)c1)Nc1ccc2c(c1)CCC2, which inhibition is on record?
A: 5.62% (inactive)

Q: With O=C(CSc1nc2c(F)cccc2c(=O)n1-c1cc(Cl)cc(Cl)c1)Nc1nc(-c2ccccc2)cs1 as the molecule, how does the inhibition read?
A: 3.92% (inactive)

Q: With O=C(CSc1nc2ccccc2c(=O)n1-c1ccc(Cl)c(F)c1)Nc1ccc2c(c1)CCC2 as the molecule, how does the inhibition read?
A: 7.41% (inactive)

Q: For O=C(CSc1nc2ccccc2c(=O)n1-c1cc(F)cc(F)c1)Nc1nc(-c2ccccc2)cs1, which inhibition is on record?
A: 3.67% (inactive)

Q: With Cc1ccc(-n2c(SCC(=O)c3nc(-c4ccccc4)cs3)nc3ccccc3c2=O)cc1Br as the molecule, how does the inhibition read?
A: 4.12% (inactive)

Q: Which inhibition does the source give for N#Cc1ccc(-n2c(SCC(=O)Nc3ccc4c(c3)CCC4)nc3ccccc3c2=O)cc1F here?
A: 2.03% (inactive)

Q: For Cc1cc(-n2c(SCC(=O)Nc3nc(-c4ccccc4)cs3)nc3ccccc3c2=O)ccc1F, which inhibition is on record?
A: 4.72% (inactive)

Q: With O=C(CSc1nc2ccccc2c(=O)n1-c1c(Cl)cccc1Cl)Nc1nc(-c2ccccc2)cs1 as the molecule, how does the inhibition read?
A: 1.54% (inactive)

Q: With N#Cc1ccc(-n2c(SCC(=O)Nc3nc(-c4ccccc4)cs3)nc3ccccc3c2=O)cc1F as the molecule, how does the inhibition read?
A: 5.78% (inactive)

Q: With O=C(CSc1nc2c(F)cccc2c(=O)n1-c1ccc(Cl)c(Cl)c1)Nc1nc(-c2ccccc2)cs1 as the molecule, how does the inhibition read?
A: 5.8% (inactive)

Q: For O=C(CSc1nc2cccc(F)c2c(=O)n1-c1ccc(Cl)c(Cl)c1)Nc1nc(-c2ccccc2)cs1, which inhibition is on record?
A: 3.12% (inactive)

Q: For O=C(CSc1nc2ccccc2c(=O)n1-c1ccccn1)Nc1nc(-c2ccccc2)cs1, which inhibition is on record?
A: 3.87% (inactive)

Q: Which inhibition does the source give for O=C(CSc1nc2cccc(F)c2c(=O)n1-c1cc(Br)c(F)cn1)Nc1ccc2c(c1)CCC2 here?
A: 3.79% (inactive)

Tested on: West Nile virus infected cells, antiviral cytopathic protection
Experiment: as above
Details: not given

Q: With Cc1ccc(-n2c(SCC(=O)Nc3ccc4c(c3)CCC4)nc3ccccc3c2=O)cc1Br as the molecule, how does the pEC50 read?
A: 5.08

Q: With O=C(CSc1nc2cccc(F)c2c(=O)n1-c1ccc(Cl)c(Cl)c1)Nc1ccc2c(c1)CCC2 as the molecule, how does the pEC50 read?
A: 4.81

Q: With Cc1cc(-n2c(SCC(=O)Nc3ccc4c(c3)CCC4)nc3ccccc3c2=O)ccc1Cl as the molecule, how does the pEC50 read?
A: 5.37

Q: With O=C(CSc1nc2ccccc2c(=O)n1-c1cc(Cl)c(F)cn1)Nc1ccc2c(c1)CCC2 as the molecule, how does the pEC50 read?
A: 4.61

Q: With Cc1cc(-n2c(SCC(=O)Nc3ccc4c(c3)CCC4)nc3ccccc3c2=O)ccc1F as the molecule, how does the pEC50 read?
A: 5.18

Q: With O=C(CSc1nc2c(F)cccc2c(=O)n1-c1ccccc1)Nc1ccc2c(c1)CCC2 as the molecule, how does the pEC50 read?
A: 4.76

Q: With O=C(CSc1nc2c(F)cccc2c(=O)n1-c1ccc(Cl)c(Cl)c1)Nc1ccc2c(c1)CCC2 as the molecule, how does the pEC50 read?
A: 5.03

Q: With O=C(CSc1nc2c(F)cccc2c(=O)n1-c1cc(Cl)cc(Cl)c1)Nc1ccc2c(c1)CCC2 as the molecule, how does the pEC50 read?
A: 4.94

Q: With O=C(CSc1nc2ccccc2c(=O)n1-c1ccc(Cl)c(Br)c1)Nc1ccc2c(c1)CCC2 as the molecule, how does the pEC50 read?
A: 4.86

Q: With O=C(CSc1nc2ccccc2c(=O)n1-c1c(Cl)cccc1Cl)Nc1ccc2c(c1)CCC2 as the molecule, how does the pEC50 read?
A: 4.89

Q: With O=C(CSc1nc2ccccc2c(=O)n1-c1ccccc1)Nc1ccc2c(c1)CCC2 as the molecule, how does the pEC50 read?
A: 4.57

Q: With O=C(CSc1nc2ccccc2c(=O)n1-c1cc(F)cc(F)c1)Nc1ccc2c(c1)CCC2 as the molecule, how does the pEC50 read?
A: 4.94

Q: With O=C(CSc1nc2ccccc2c(=O)n1-c1cc(F)c(F)cn1)Nc1ccc2c(c1)CCC2 as the molecule, how does the pEC50 read?
A: 4.73
